From patent US9688966B2, “Compositions comprising cellobiose dehydrogenase from Pycnoporus cinnabarinus and their use for the degradation of lignocellulosic biomass” (INSTITUT NATIONAL DE LA RECHERCHE AGRONOMIQUE, priority 2011, dated 2017)

Target: Pycnoporus cinnabarinus ss3 cellobiose dehydrogenase, recombinant (rCDH, C-terminal (His)6 tag, expressed in Pichia pastoris; GenBank HQ825322) (Trametes cinnabarina, UniProt F1DFN2)
Assay: Kinetic parameters of purified rCDH for electron acceptors (cellobiose oxidation, 30° C., pH 4.5)
Format: biochemical
Experimental: To measure enzyme activities in the P. cinnabarinus culture supernatant, each aliquot was centrifuged for 5 min at 3500 rpm and filtered through a 0.45 μm membrane (MILLIPORE, Bedford, Mass., USA). CDH activities were determined by monitoring the reduction of 0.2 mM 2,6-dichlorophenol indophenol (DCPIP) in 100 mM sodium acetate buffer (pH 5) containing 2 mM cellobiose and 4 mM of sodium fluoride (sodium fluoride was used as a laccase inhibitor). The decrease in absorption at 520 nm (ε=6800 M^−1·cm^−1) was monitored at 30° C. for 1 min. Alternatively, CDH activity was determined by monitoring the reduction of 50 μM cytochrome c (cyt c) in 100 mM sodium-acetate buffer (pH 5) containing 2 mM cellobiose. The decrease in absorption at 550 nm (ε=33,700 M^−1·cm^−1) was monitored at 30° C. for 1 min. Glucose oxidase was measured by using the D-gluconic acid/D-glucono-δ-lactone assay (MEGAZYME). Laccase activity was determined quantitatively by monitoring the oxidation of 5 mM ABTS (2,2′-azino-bis(3-ethylbenzthiazoline-6-sulfonic acid)) at 420 nm (extinction coefficient […] cm.^−1) in the presence of 50 mM NaK tartrate, pH 4.0. Lignin peroxidase activity was determined spectrophotometrically at 30° C. by the method of Tien and Kirk (1988, Methods Enzymol., vol. 161, pp: 238-249). Manganese peroxidase activity was determined spectrophotometrically at 30° C. by the method of Paszczynski et al. (1985, FEMS Microbiol. Lett. 29:37-41) using H2O2 and vanillylacetone as substrate. Enzyme activity was expressed in international units (IU). One unit of activity is defined as the quantity of enzyme that transforms 1 μmol of substrate in one minute.
The kinetic parameters (Vmax and Km) were determined for cellobiose oxidation measured at 30° C. in 50 mM citrate phosphate buffer pH 4.5 using DCPIP or cytochrome c. The concentration of cellobiose ranged from 10 to 700 μM with both electron acceptors (DCPIP and cytochrome c). Triplicates were run to ensure reliable kinetic parameter determination.
Graphpad prism v.4 (Graphpad Software) was used for the nonlinear regression calculation and kinetic parameter determination.

[1] = electron acceptor DCPIP, cellobiose as electron donor, 30° C., pH 4.5, apparent

Chain of Pycnoporus cinnabarinus ss3 cellobiose dehydrogenase, recombinant (rCDH, C-terminal (His)6 tag, expressed in Pichia pastoris; GenBank HQ825322) (F1DFN2 1-750): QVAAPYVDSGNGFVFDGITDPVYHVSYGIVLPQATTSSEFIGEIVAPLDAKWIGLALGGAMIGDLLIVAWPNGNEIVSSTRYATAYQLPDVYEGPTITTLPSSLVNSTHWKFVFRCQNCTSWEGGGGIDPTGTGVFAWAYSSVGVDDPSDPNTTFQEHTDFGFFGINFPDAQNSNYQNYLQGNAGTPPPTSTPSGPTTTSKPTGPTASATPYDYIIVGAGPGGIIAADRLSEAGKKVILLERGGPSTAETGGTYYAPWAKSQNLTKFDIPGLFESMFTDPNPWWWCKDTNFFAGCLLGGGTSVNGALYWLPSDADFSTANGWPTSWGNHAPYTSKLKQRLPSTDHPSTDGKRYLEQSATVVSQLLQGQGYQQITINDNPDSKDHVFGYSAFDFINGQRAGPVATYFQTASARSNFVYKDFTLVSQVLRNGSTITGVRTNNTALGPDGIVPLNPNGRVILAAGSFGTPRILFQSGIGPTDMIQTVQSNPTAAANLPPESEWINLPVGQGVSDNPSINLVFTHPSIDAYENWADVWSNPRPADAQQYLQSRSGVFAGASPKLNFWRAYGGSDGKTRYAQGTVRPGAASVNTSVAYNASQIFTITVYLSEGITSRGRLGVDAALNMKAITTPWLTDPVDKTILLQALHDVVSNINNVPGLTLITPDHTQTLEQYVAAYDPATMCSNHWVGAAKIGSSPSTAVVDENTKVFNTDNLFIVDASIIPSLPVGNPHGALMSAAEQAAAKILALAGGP

O=C1C(Cl)=CC(=Nc2ccc(O)cc2)C=C1Cl [DCPIP, 2,6-dichlorophenol indophenol]
Vmax (DCPIP, on cellobiose oxidation): 22.2 U·mg^−1 | Vmax [1]: 22.2 µmol/min/mg | kcat [1]: 40.8 s⁻¹ | kcat/KM [1]: 1148 s⁻¹ mM⁻¹
